# Calls of active or inactive are those of the source. The calls are words filed in the database; no cut-off is given here.
# What was measured:
# [1] = Drug level in mouse stool after 3 days; assay type: ADME, organism-based; conditions: read-out: Drug uptake
# Klebsiella pneumoniae [2] = assay: Inhibition of growth in Klebsiella pneumoniae P62 by mouse colonization study; assay type: functional
# Enterococcus [3] = assay: Overgrowth of enterococci in mouse intestine assessed in stool after 3 days; assay type: functional, organism-based
# Enterococcus [4] = assay: Inhibition of growth in Vancomycin-resistant Enterococci C68 by mouse colonization study; assay type: functional
# Enterococcus [5] = assay: Overgrowth of vancomycin-resistant enterococci growth in mouse intestine assessed in stool 2 days after 5 days treatment relative to saline; assay type: functional, organism-based
# Bacteroides sp. = assay: Inhibition of intestinal colonization of Bacteroides sp in mouse assessed in stool after 3 days relative to saline; assay type: functional, organism-based
# Enterococcus [6] = assay: Overgrowth of vancomycin-resistant enterococci growth in mouse intestine assessed in stool 2 days after […] treatment relative to saline; assay type: functional, organism-based
# Klebsiella pneumoniae [7] = assay: Overgrowth of Klebsiella pneumonia growth in mouse intestine assessed in stool 2 days after 5 day treatment relative to saline; assay type: functional, organism-based
# [8] = Drug level in mouse stool after 5 days; assay type: ADME, organism-based; conditions: read-out: Drug uptake
Structure (SMILES),concentration at 72 h [1] [ng/g],MIC (Klebsiella pneumoniae [2]) [µg/mL],Activity (Enterococcus [3]),MIC (Enterococcus [4]) [µg/mL],Activity (Enterococcus [5]),Activity (Bacteroides sp.),Activity (Enterococcus [6]),Activity (Klebsiella pneumoniae [7]),concentration at 120 h [8] [ng/g]
CO/N=C(\C(=O)N[C@@H]1C(=O)N2C(C(=O)O)=C(CSc3nc(=O)c(=O)[nH]n3C)CS[C@H]12)c1csc(N)n1 [CEFTRIAXONE],93800,–,–,–,–,–,–,–,–
CO/N=C(\C(=O)N[C@@H]1C(=O)N2C(C(=O)O)=C(CSc3nc(=O)c(O)nn3C)CS[C@H]12)c1csc(N)n1 [CEFTRIAXONE],–,4,Active,> 10000,Active,Active,Active,Active,–
C[C@@H](O)[C@H]1C(=O)N2C(C(=O)O)=C(S[C@@H]3CN[C@H](C(=O)Nc4cccc(C(=O)O)c4)C3)[C@H](C)[C@H]12 [ERTAPENEM],< 5000,< 0.25,Active,> 1020,inactive,Active,–,inactive,10500

# — ChEMBL document CHEMBL1142129, “Effect of carbapenem administration on establishment of intestinal colonization by vancomycin-resistant enterococci and Klebsiella pneumoniae in mice” (Antimicrob Agents Chemother, 2007)
